Results from ChEMBL document CHEMBL1909046, “DrugMatrix in vitro pharmacology data”.

Key:
[1] = DRUGMATRIX: Calcium Channel Type L, Phenylalkylamine radioligand binding (ligand: [3H] (-)-Desmethoxyverapamil (D-888)); assay type: cell membranes, Rattus norvegicus, Wistar, Brain, Membrane; conditions: Not Active = under 50% inhibition at 10 µM
[2] = DRUGMATRIX: GABAA, Chloride Channel, TBOB radioligand binding (ligand: [3H] TBOB); assay type: cell membranes, Rattus norvegicus, Wistar, Cerebral cortex, Membrane; conditions: Not Active = under 50% inhibition at 10 µM
[3] = DRUGMATRIX: Leukotriene, BLT (LTB4) radioligand binding (ligand: [3H]LTB4); assay type: cell membranes, Membrane; conditions: u-937; Not Active = under 50% inhibition at 10 µM
[4] = target: T1, Muscarinic acetylcholine receptor M5 (Homo sapiens, UniProt P08912); assay type: cell membranes, CHO-K1, Membrane; conditions: cho-k1; note: in other assays of this panel Not Active means under 50% inhibition at 10 µM
T1 sequence (P08912 whole entry): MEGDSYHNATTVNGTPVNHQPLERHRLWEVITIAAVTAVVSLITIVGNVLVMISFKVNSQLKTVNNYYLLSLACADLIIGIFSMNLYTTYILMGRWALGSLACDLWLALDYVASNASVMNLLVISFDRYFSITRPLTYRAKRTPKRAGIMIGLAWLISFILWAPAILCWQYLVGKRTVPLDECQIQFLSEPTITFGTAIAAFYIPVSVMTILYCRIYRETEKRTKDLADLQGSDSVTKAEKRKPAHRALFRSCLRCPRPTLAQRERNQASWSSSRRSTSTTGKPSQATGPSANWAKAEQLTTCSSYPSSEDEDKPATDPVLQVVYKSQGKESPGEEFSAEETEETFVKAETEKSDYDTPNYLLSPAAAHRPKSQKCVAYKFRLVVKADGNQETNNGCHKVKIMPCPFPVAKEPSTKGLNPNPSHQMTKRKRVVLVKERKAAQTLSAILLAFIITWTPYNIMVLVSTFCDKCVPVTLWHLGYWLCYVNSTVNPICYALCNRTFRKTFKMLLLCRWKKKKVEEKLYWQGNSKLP

[5] = target: cGMP-specific 3',5'-cyclic phosphodiesterase (Homo sapiens, UniProt O76074); assay: DRUGMATRIX: Phosphodiesterase PDE5 enzyme inhibition (substrate: [3H]cGMP + cGMP); assay type: tissue-based; conditions: platelet; Not Active = under 50% inhibition at 10 µM
[6] = DRUGMATRIX: Potassium Channel [KATP] radioligand binding (ligand: [3H] Glyburide); assay type: cell membranes, Membrane; conditions: hit-t15; Not Active = under 50% inhibition at 10 µM
Adenosine receptor A2a = Adenosine receptor A2a (Homo sapiens, UniProt P29274); assay: DRUGMATRIX: Adenosine A2A radioligand binding (ligand: […]); assay type: cell membranes, Membrane; conditions: hek293; Not Active = under 50% inhibition at 10 µM
Sequence of Adenosine receptor A2a (P29274 whole entry): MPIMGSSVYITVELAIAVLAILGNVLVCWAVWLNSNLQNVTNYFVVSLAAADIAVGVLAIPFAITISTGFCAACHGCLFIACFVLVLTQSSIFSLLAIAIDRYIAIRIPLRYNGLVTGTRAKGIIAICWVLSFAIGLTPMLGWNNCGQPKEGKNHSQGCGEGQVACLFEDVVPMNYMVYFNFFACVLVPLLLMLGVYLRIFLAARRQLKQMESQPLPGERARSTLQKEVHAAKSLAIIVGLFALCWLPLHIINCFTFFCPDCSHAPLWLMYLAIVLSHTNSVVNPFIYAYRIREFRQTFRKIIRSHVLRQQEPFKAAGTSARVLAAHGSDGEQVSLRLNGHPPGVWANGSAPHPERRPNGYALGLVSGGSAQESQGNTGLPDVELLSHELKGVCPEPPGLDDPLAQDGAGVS

CC(C)CN(C[C@@H](O)[C@H](Cc1ccccc1)NC(=O)O[C@H]1CCOC1)S(=O)(=O)c1ccc(N)cc1
Not Active: IC50 [1] | Ki [1] | IC50 [2] | Ki [2] | IC50 [3] | Ki [3] | IC50 [4] | IC50 [5] | IC50 [6] | Ki [6] | IC50 (Adenosine receptor A2a)

c1ccc(Nc2ccc(Nc3ccccc3)cc2)cc1
Not Active: IC50 [1] | Ki [1] | IC50 [2] | Ki [2] | IC50 [3] | Ki [3] | IC50 [4] | IC50 [5] | IC50 [6] | Ki [6] | IC50 (Adenosine receptor A2a)

COc1cc2c3cc1Oc1cc(ccc1O)C[C@@H]1c4c(cc(OC)c(O)c4Oc4ccc(cc4)C[C@@H]3N(C)CC2)CC[N+]1(C)C.[Cl-]
Not Active: IC50 [1] | Ki [1] | IC50 [2] | Ki [2] | IC50 [3] | Ki [3] | IC50 [4] | IC50 [5] | IC50 [6] | Ki [6] | IC50 (Adenosine receptor A2a)

NC(=O)N1c2ccccc2CCc2ccccc21
Not Active: IC50 [1] | Ki [1] | IC50 [2] | Ki [2] | IC50 [3] | Ki [3] | IC50 [4] | IC50 [5] | IC50 [6] | Ki [6] | IC50 (Adenosine receptor A2a)

O=C1CC[C@@H](N2C(=O)c3ccccc3C2=O)C(=O)N1
Not Active: IC50 [1] | Ki [1] | IC50 [2] | Ki [2] | IC50 [3] | Ki [3] | IC50 [4] | IC50 [5] | IC50 [6] | Ki [6] | IC50 (Adenosine receptor A2a)

Cc1onc(O)c1CC(N)C(=O)O (racemic) [(R,S)-AMPA]
Not Active: IC50 [1] | Ki [1] | IC50 [2] | Ki [2] | IC50 [3] | Ki [3] | IC50 [4] | IC50 [5] | IC50 [6] | Ki [6] | IC50 (Adenosine receptor A2a)

Cc1ccc2cc3c(ccc4ccccc43)c3c2c1CC3 [3-METHYLCHOLANTHRENE]
Not Active: IC50 [1] | Ki [1] | IC50 [2] | Ki [2] | IC50 [3] | Ki [3] | IC50 [4] | IC50 [5] | IC50 [6] | Ki [6] | IC50 (Adenosine receptor A2a)

CC[C@@]1(O)C[C@H](O[C@H]2C[C@H](N(C)C)[C@H](O[C@H]3C[C@H](O)[C@H](O[C@H]4CCC(=O)[C@H](C)O4)[C@H](C)O3)[C@H](C)O2)c2c(cc3c(c2O)C(=O)c2c(O)cccc2C3=O)[C@H]1C(=O)OC [ACLARUBICIN]
Not Active: IC50 [1] | Ki [1] | IC50 [2] | Ki [2] | IC50 [3] | Ki [3] | IC50 [4] | IC50 [5] | IC50 [6] | Ki [6] | IC50 (Adenosine receptor A2a)

Nc1nc2c(ncn2COCCO)c(=O)[nH]1 [ACYCLOVIR]
Not Active: IC50 [1] | Ki [1] | IC50 [2] | Ki [2] | IC50 [3] | Ki [3] | IC50 [4] | IC50 [5] | IC50 [6] | Ki [6] | IC50 (Adenosine receptor A2a)

Cc1c(C)c2c(c(C)c1O)CC[C@@](C)(CCC[C@H](C)CCC[C@H](C)CCCC(C)C)O2 [ALPHA-TOCOPHEROL]
Not Active: IC50 [1] | Ki [1] | IC50 [2] | Ki [2] | IC50 [3] | Ki [3] | IC50 [4] | IC50 [5] | IC50 [6] | Ki [6] | IC50 (Adenosine receptor A2a)

CN(C)c1nc(N(C)C)nc(N(C)C)n1 [ALTRETAMINE]
Not Active: IC50 [1] | Ki [1] | IC50 [2] | Ki [2] | IC50 [3] | Ki [3] | IC50 [4] | IC50 [5] | IC50 [6] | Ki [6] | IC50 (Adenosine receptor A2a)

Nc1c(Br)cc(Br)cc1CN[C@H]1CC[C@H](O)CC1 [AMBROXOL]
Not Active: IC50 [1] | Ki [1] | IC50 [2] | Ki [2] | IC50 [3] | Ki [3] | IC50 [4] | IC50 [5] | IC50 [6] | Ki [6] | IC50 (Adenosine receptor A2a)
